{
  "source": "patent US7375096B1",
  "about": "“Method of preparing a supramolecular complex containing a therapeutic agent and a multi-dimensional polymer network” (California Institute of Technology, priority 1998, dated 2008)",
  "key": {"[1]": {"tested_on": "BHK-21 cells", "method": "BHK-21 cells were plated in 24 well plates at a cell density of 60,000 cells/well 24 hours before transfection. […] Media solution containing the DNA/polymer complexes was added to cultured cells and replaced with fresh media after 24 hours of incubation at 37° C. The cells were lysed 48 hours after transfection. […] Cell lysate was also used to determine cell viability by the Lowry protein assay."}, "[2]": {"tested_on": "DNA", "test": "Pentalysine DNA binding with crosslinker DTBP and reducing agent TCEP (agarose gel)", "experimental": "Pentalysine was added to DNA for 15 minutes. Crosslinker DTBP was then added to the solution mixture for over 60 minutes. TCEP was added and an agarose gel was run after 30 minutes. […] Thus, crosslinking with DTBP increased the affinity of pentalysine to DNA."}},
  "data": [
    {"substance": "β-Cyclodextrin(cystamine)-DMS copolymer [copolymer 15]", "values": [
      {"measurement": "toxicity (cell viability, Lowry protein assay)", "setting": "[1]", "result": "No toxicity was observed"}
    ]},
    {"substance": "Pentalysine", "values": [
      {"measurement": "binding to DNA", "setting": "[2]", "result": "not strong enough to bind to the DNA"}
    ]}
  ]
}
